Here are results for 4 compounds from ChEMBL document CHEMBL4219256, “Design, Synthesis, and Biological Evaluation of 4-Quinoline Carboxylic Acids as Inhibitors of Dihydroorotate Dehydrogenase” (J Med Chem, 2018).

The subject of data set [1] is HCT-116. Nature of the data set: Antiproliferative activity against human HCT116 cells over-expressing DHODH after 72 hrs by MTT assay. The data set is classed as functional, cell-based.
Data set [2] can be described thus: Cmax in human at 16 mg/m2 administered as 10 mins iv infusion. The format is ADME, organism-based. Details: route intravenous. The note with it: in vivo.
Data set [3] in a line: Elimination half life in human at 16 mg/m2 administered as 10 mins iv infusion. The data set is classed as ADME, organism-based. The note with it: in vivo, read-out: beta t1/2 (converted).
Data set [4] concerns Homo sapiens. As to the kind of experiment: Volume of distribution at steady state in human at 36 mg/m2, iv. The data set is classed as ADME, organism-based. The note with it: in vivo.
Data set [5] in a line: Cmax in human at 8 mg/m2 administered as 10 mins iv infusion. The data set is classed as ADME, organism-based. On the set-up: route intravenous. The note with it: in vivo.
In data set [6] the test system is Homo sapiens. As to the kind of experiment: Clearance in human at 8 mg/m2 administered as 10 mins iv infusion. The format is ADME, organism-based. The note with it: in vivo.
Data set [7] can be described thus: Thermodynamic aqueous solubility of the compound in pH 7.4 phosphate buffer at 6.4 mg/ml after overnight incubation by CLND method. The format is physicochemical.
The subject of data set [8] is Homo sapiens. Nature of the data set: Volume of distribution at steady state in human at 16 mg/m2 administered as 10 mins iv infusion. The format is ADME, organism-based. The note with it: in vivo.
Data set [9] concerns Homo sapiens. Nature of the data set: Clearance in human at 16 mg/m2 administered as 10 mins iv infusion. The note with it: in vivo. The format is ADME, organism-based.
A short description of data set [10]: Thermodynamic aqueous solubility of the compound in pH 7.4 phosphate buffer at 6.2 mg/ml after overnight incubation by CLND method. The data set is classed as physicochemical.
Another data set has as its system MIA PaCa-2. Nature of the data set: Antiproliferative activity against human MIAPaCa2 cells after 72 hrs by MTT assay. The data set is classed as functional, cell-based.
The nature of data set [11]: AUC (0 to last) in human at 16 mg/m2 administered as 10 mins iv infusion. The data set is classed as ADME, organism-based. The note with it: in vivo. On the set-up: route intravenous, time 0 - last.
A short description of data set [12]: Solubility of the compound in water at pH 7.4. The data set is classed as physicochemical.
Data set [13] has as its system Homo sapiens. As to the kind of experiment: Volume of distribution at steady state in human at 8 mg/m2 administered as 10 mins iv infusion. The format is ADME, organism-based. The note with it: in vivo.
Data set [14] can be described thus: AUC (0 to last) in human at 8 mg/m2 administered as 10 mins iv infusion. Details: time 0 - last, route intravenous. The note with it: in vivo. The format is ADME, organism-based.
The nature of data set [15]: AUC (0 to last) in human at 36 mg/m2, iv. The format is ADME, organism-based. On the set-up: route intravenous, time 0 - last. The note with it: in vivo.
Data set [16] deals with HCT-116. Nature of the data set: Growth inhibition of human HCT116 cells over-expressing DHODH at 2 times antiproliferative IC50 after 72 hrs in presence of 5 uM uridine by MTT assay. The data set is classed as functional.
Data set [17] in a line: Elimination half life in human at 8 mg/m2 administered as 10 mins iv infusion. The data set is classed as ADME, organism-based. The note with it: in vivo, read-out: beta t1/2 (converted).
The subject of a further data set is HL-60. As to the kind of experiment: Antiproliferative activity against human HL60 cells after 72 hrs by MTT assay.
A short description of data set [18]: Elimination half life in human at 36 mg/m2, iv. The format is ADME, organism-based. The note with it: in vivo, read-out: beta t1/2 (converted).
The nature of data set [19]: Thermodynamic aqueous solubility of the compound in pH 7.4 phosphate buffer at 8.7 mg/ml after overnight incubation by CLND method. The data set is classed as physicochemical.
A short description of data set [20]: Thermodynamic aqueous solubility of the compound in pH 7.4 phosphate buffer at 6.7 mg/ml after overnight incubation by CLND method. The format is physicochemical.
Data set [21] concerns the target Dihydroorotate dehydrogenase (quinone), mitochondrial (Homo sapiens, UniProt Q02127).
Description: Inhibition of DHODH (unknown origin) expressed in Escherichia coli Rosetta2(DE3) assessed as reduction of DCIP using dihydroorotate as substrate preincubated for 30 mins followed by substrate addition in presence of CoQ10 measured after 1 hr
A short description of data set [22]: Tmax in CD-1 mouse at 20 mg/kg, po. The format is ADME, organism-based. The note with it: in vivo.
Data set [23] can be described thus: Clearance in CD-1 mouse at 10 mg/kg, iv. The format is ADME, organism-based. The note with it: in vivo.
Data set [24] in a line: AUC (0 to infinity) in CD-1 mouse at 10 mg/kg, iv. On the set-up: dose 10 mg/kg, time infinity, route intravenous. The note with it: in vivo. The data set is classed as ADME, organism-based.
A short description of data set [25]: AUC (0 to infinity) in CD-1 mouse at 20 mg/kg, po. Details: dose 20 mg/kg, time infinity, route oral. The data set is classed as ADME, organism-based. The note with it: in vivo.
A short description of data set [26]: Apparent volume of distribution during terminal phase in CD-1 mouse at 20 mg/kg, po. The data set is classed as ADME, organism-based. The note with it: in vivo, read-out: Vz/F.
The nature of data set [27]: Volume of distribution at steady state in CD-1 mouse at 10 mg/kg, iv. The format is ADME, organism-based. The note with it: in vivo, read-out: Vdss.
Data set [28] is described as follows: AUC (0 to last) in CD-1 mouse at 10 mg/kg, iv. The data set is classed as ADME, organism-based. On the set-up: dose 10 mg/kg, time 0 - last, route intravenous. The note with it: in vivo.
The nature of data set [29]: Initial plasma concentration in CD-1 mouse at 10 mg/kg, iv. The data set is classed as ADME, organism-based.
Data set [30] in a line: Thermodynamic aqueous solubility of the compound in pH 7.4 phosphate buffer at 5.8 mg/ml after overnight incubation by CLND method. The data set is classed as physicochemical.
Data set [31] in a line: Elimination half life in CD-1 mouse at 20 mg/kg, po. The data set is classed as ADME, organism-based. The note with it: in vivo, read-out: beta t1/2 (converted).
Data set [32] is described as follows: Cmax in CD-1 mouse at 20 mg/kg, po. The format is ADME, organism-based. Details: dose 20 mg/kg, route oral. The note with it: in vivo.
A short description of data set [33]: AUC (0 to last) in CD-1 mouse at 20 mg/kg, po. The data set is classed as ADME, organism-based. On the set-up: dose 20 mg/kg, route oral, time 0 - last. The note with it: in vivo.
The next data set concerns Mus musculus. As to the kind of experiment: Oral bioavailability in CD-1 mouse at 20 mg/kg. The data set is classed as ADME, organism-based. The note with it: in vivo.
Data set [34] in a line: Thermodynamic aqueous solubility of the compound in pH 7.4 phosphate buffer at 4.9 mg/ml after overnight incubation by CLND method. The data set is classed as physicochemical.
A short description of data set [35]: Apparent clearance in CD-1 mouse at 20 mg/kg, po. The data set is classed as ADME, organism-based. The note with it: in vivo.
The nature of data set [36]: Elimination half life in CD-1 mouse at 10 mg/kg, iv. The data set is classed as ADME, organism-based. The note with it: in vivo, read-out: beta t1/2 (converted).
The nature of data set [37]: Thermodynamic aqueous solubility of the compound in pH 7.4 phosphate buffer at 2.9 mg/ml after overnight incubation by CLND method. The format is physicochemical.

Some results are limits rather than exact numbers.

Sequence of Dihydroorotate dehydrogenase (quinone), mitochondrial (Q02127 whole entry): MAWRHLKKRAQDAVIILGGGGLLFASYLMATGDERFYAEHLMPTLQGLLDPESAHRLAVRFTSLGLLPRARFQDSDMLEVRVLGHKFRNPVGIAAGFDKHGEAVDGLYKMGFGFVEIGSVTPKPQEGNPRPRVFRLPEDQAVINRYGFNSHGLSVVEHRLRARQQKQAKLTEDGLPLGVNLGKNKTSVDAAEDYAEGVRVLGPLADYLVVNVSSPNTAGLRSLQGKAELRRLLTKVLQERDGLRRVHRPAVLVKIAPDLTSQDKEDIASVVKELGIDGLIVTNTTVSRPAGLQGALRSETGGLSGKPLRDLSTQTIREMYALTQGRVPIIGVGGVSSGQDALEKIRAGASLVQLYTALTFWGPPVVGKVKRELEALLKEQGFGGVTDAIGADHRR

Take `Cc1c(-c2ccc(-c3ccccc3F)cc2)nc2ccc(F)cc2c1C(=O)O` [BREQUINAR]: the IC50 is 0.679 µM in the data set on HCT-116 [1], 1.69 µM in the data set on MIA PaCa-2 and 0.544 µM with HL-60. The figures for the peak concentration (Cmax) in [2] and in data set [5] were 2700 ng/mL and 1800 ng/mL, respectively. Besides, the results for the half-life in [3], in data set [17] and in [18] were 3.1 h, 2.9 h and 4.3 h, respectively. Moreover, the Vdss in the data set with Homo sapiens [4] stood at 7.48 L/m2; with Homo sapiens [8] it was 11.6 L/m2; in the data set with Homo sapiens [13] it was 8.2 L/m2. Besides, the CL with Homo sapiens [6] is 3.2 L/hr/m2; in the data set on Homo sapiens [9], 4.9 L/hr/m2. The figures for the Therm_solubility in data set [7] and in data set [10] were 1048.6 µM and 1085.2 µM, respectively. Moreover, the values for the AUC(0-t) at 10 min in data set [11] and in data set [14] were 3800 ng·h/mL and 3200 ng·h/mL, respectively. The solubility in data set [12] is under 100 µg/mL. Moreover, the AUC(0-t) in data set [15] was 20700 ng·h/mL. In addition, the “growth inhibition (GI)” value in the data set with HCT-116 [16] is reported as under 50%.

On to `Cc1c(-c2ccc(-c3ccccc3)cc2)nc2cnccc2c1C(=O)O`, for which the IC50 in the data set on HCT-116 [1] amounted to 6.3 µM; with MIA PaCa-2, 4.5 µM; in data set [21], 0.0283 µM; in the data set on HL-60, 7.08 µM. Moreover, the Therm_solubility in data set [19] is 3096.3 µM; in data set [20] it was 2628.4 µM.

Take `Cc1c(-c2ccc(-c3cccnc3Cl)cc2)nc2ccc(F)cc2c1C(=O)O`: the time to peak (Tmax) in data set [22] is 0.25 h. For the same compound, in [23], the clearance is 5.15 mL/min/kg. Moreover, the IC50 with HCT-116 [1] was 3.02 µM; in the data set with MIA PaCa-2, 7.18 µM; with HL-60, 9.28 µM. For the same compound, the results for the total exposure AUC(0-inf) in data set [24] and in data set [25] were 32300 ng·h/mL and 36000 ng·h/mL, respectively. In [26], the Vd/F worked out at 2.23 L/kg. For the same compound, in data set [27], the Vd was 0.496 L/kg. Moreover, the AUC(0-t) in data set [28] was determined as 32300 ng·h/mL; in data set [33], 35900 ng·h/mL. The C0 in data set [29] came out at 45400 ng/mL. For the same compound, the Therm_solubility in [30] amounted to 1000.1 µM; in data set [34], 982.1 µM. Moreover, the half-life was 2.78 h in data set [31] and 2.73 h in [36]. In addition, the Cmax in [32] came out at 5310 ng/mL. For the same compound, the F in the data set on Mus musculus came to 56%. The apparent clearance (CL/F) in data set [35] was 9.25 mL/min/kg.

For the compound `O=C(O)c1cc(-c2ccc(C3CCCCC3)cc2)nc2ccccc12`, the IC50 with HCT-116 [1] is 4.22 µM; in the data set with MIA PaCa-2 it was 5.88 µM. Further, the Therm_solubility was found to be 43.9 µM in [37] and 48 µM in [34]. In addition, the “growth inhibition (GI)” value in the data set with HCT-116 [16] is recorded as under 50%.
